What was measured:
[1] = test system: gene expression in the uterus; test: GeneChip microarray survey of E2 regulated gene expression, uterus; conditions: 20 μg/kg/day E2 s.c. six weeks; WT and ERβKO ovariectomized mice; number of genes
Protocol: (§1) FIG. 1 depicts a pattern analysis generated by a GeneChip microarray analysis. […] Two hours following the final dose, the mice were euthanized and 13 tissues removed for RNA preparation. Two independent studies were performed, with total RNA pooled from two groups of three animals for each condition. Gene expression was quantified by GeneChip microarrays using murine U74 sub A arrays. Data were analyzed for patterns indicating either ERα or ERβ dependent regulation as shown. […] The number of genes in each tissue that matched the theoretical induction (↑) or repression (↓) patterns for ERα or ERβ are indicated.
(§2) One week later, the animals were ovariectomized.
GeneChip—Total RNA was prepared separately from each individual organ by using Trizol (Invitrogen) followed by subsequent repurification on Rneasy columns (Qiagen). In general, two pools of RNA were created using equal amounts of RNA from three mice. For small organs such as pituitary, an equal amount of RNA from six animals was combined.
Target Preparation and Array Hybridization—Total RNA was used to generate biotin labeled cRNA target as described (8) which was hybridized to the murine MG_U74Av2 probe arrays (Affymetrix, Santa Clara, Calif.) for 16 h at 45° C. Eleven biotin-labeled cRNAs at defined concentration were spiked into each hybridization and used to convert average difference values to frequencies expressed as parts per million.
The resulting data set was queried for genes whose regulation was dependent on ERα or ERβ.

[2] = test system: gene expression in the pituitary; test: GeneChip microarray survey of E2 regulated gene expression, pituitary; type: in vivo, mouse
Excerpt: as §2

[3] = test system: gene expression in bone marrow; test: GeneChip microarray survey of E2 regulated gene expression, bone marrow; type: in vivo, mouse; conditions: 20 μg/kg/day E2 s.c. six weeks; WT and ERβKO ovariectomized mice; number of genes
Protocol: as §1, §2
GeneChip—Total RNA was prepared separately from each individual organ by using Trizol (Invitrogen) followed by subsequent repurification on Rneasy columns (Qiagen). In general, two pools of RNA were created using equal amounts of RNA from three mice. […]
Target Preparation and Array Hybridization—Total RNA was used to generate biotin labeled cRNA target as described (8) which was hybridized to the murine MG_U74Av2 probe arrays (Affymetrix, Santa Clara, Calif.) for 16 h at 45° C. Eleven biotin-labeled cRNAs at defined concentration were spiked into each hybridization and used to convert average difference values to frequencies expressed as parts per million. […]

[4] = test system: gene expression in the uterus; test: Real-time PCR of uterine gene expression in ovariectomized WT mice; type: in vivo, mouse; conditions: various doses s.c. six weeks, FIG. 5
Excerpt: as §2

[5] = 20 μg/kg/day E2 s.c. six weeks, WT and ERβKO ovariectomized mice, number of genes

`C[C@]12CC[C@@H]3c4ccc(O)cc4CC[C@H]3[C@@H]1CC[C@@H]2O` [E2, 17β-estradiol] was tested. Which “ERα pattern regulations in uterus, number of inductions” value [1] did it give?
Its value is 514.

What about the “ERα pattern regulations in uterus, number of repressions” value [1] of the same compound?
The value was 19.

What about the “ERα pattern regulations in pituitary, number of inductions” value [2, 5] of the same compound?
The value was 56.

What about the “ERα pattern regulations in pituitary, number of repressions” value [2, 5] of the same compound?
Its value is 30.

What about the “Kallikrein-9 expression in pituitary” value ([2]; mouse, in vivo) of the same compound?
Its value is “Induced”.

And the “ERα pattern regulations in bone marrow, number of inductions” value [3]?
Its value is 3.

What about the “ERα pattern regulations in bone marrow, number of repressions” value [3] of the same compound?
Its value is 3.

And the “ED50 for BCAT1 induction in the uterus” value [4]?
The value was 0.2 µg/kg/day.

What about the “ED50 for c-fos induction in the uterus” value [4] of the same compound?
The value was 2.7 µg/kg/day.

From patent US7371207B2 (Wyeth, priority 2002, dated 2008)
